Results: patent US7838535B2, “Compounds having β2 adrenergic receptor agonist and muscarinic receptor antagonist activity” (Theravance, Inc., priority 2003, dated 2010)
Counter-ions that a name gives are not always drawn.

Experiments:
[1] = molecular target: T1, human dopamine D2S receptor (Homo sapiens, UniProt P14416); experiment: Radioligand competition binding assay in cloned human dopamine D2S receptor; settings: test concentration 100 nM, 0.3 nM [3H]spiperone, transfected CHO cell membranes; read-out: percent inhibition of the control radioligand specific binding
T1 construct: expressed in transfected cells; host or cells: CHO cells, transfected, cell membrane homogenates
T1 sequence (P14416 1-414 isoform P14416-2): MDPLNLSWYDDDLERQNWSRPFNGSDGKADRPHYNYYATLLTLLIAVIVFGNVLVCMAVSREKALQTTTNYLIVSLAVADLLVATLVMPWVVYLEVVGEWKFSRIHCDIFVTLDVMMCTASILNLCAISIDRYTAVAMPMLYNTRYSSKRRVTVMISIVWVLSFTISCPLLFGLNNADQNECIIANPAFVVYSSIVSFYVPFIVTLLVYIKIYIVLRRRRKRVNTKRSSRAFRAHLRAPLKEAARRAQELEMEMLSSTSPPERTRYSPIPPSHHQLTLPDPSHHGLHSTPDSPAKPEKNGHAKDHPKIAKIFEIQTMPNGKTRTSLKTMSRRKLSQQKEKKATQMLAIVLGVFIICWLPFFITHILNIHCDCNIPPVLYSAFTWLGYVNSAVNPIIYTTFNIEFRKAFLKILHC
Protocol: In this assay, the binding affinity of test compounds for the human dopamine D2S receptor in transfected CHO cells is determined using a radioligand binding assay (Grady et al., Proc. Natl. Acad. Sci. USA 86:9762 (1989). Cell membrane homogenates (5-10 μg protein) were incubated for 60 minutes at 22° C. with 0.3 nM [^3H]spiperone in the absence or presence of a test compound in a buffer containing 50 mM Tris-HCl (pH 7.4), 120 mM NaCl, 5 mM KCl, 5 mM MgCl2 and 1 mM EDTA. The test compound was used at a test concentration of 100 nM. Nonspecific binding was determined in the presence of 10 μM (+)-butaclamol. Following incubation, the samples were filtered rapidly under vacuum through glass fiber filters (GF/B, Packard) presoaked with 0.3% polyethyleneimine and rinsed several times with ice-cold 50 mM Tris-HCl using a 96-sample cell harvester (Unifilter, Packard). The filters were dried, and then counted for radioactivity in a scintillation counter (Topcount, Packard) using a scintillation cocktail (Microscint 0, Packard). The results were expressed as a percent inhibition of the control radioligand specific binding.

hM2 receptor = molecular target: T2, hM2 receptor (Homo sapiens, UniProt P08172); experiment: Blockade of agonist-mediated [35S]GTPγS binding, CHO-K1 membranes expressing hM2; assay type: biochemical; settings: CHO-K1 cells expressing the hM2 receptor; read-out: Ki value for blockade of oxotremorine-stimulated [35S]GTPγS-binding
T2 construct: expressed in transfected cells
T2 sequence (P08172 1-466): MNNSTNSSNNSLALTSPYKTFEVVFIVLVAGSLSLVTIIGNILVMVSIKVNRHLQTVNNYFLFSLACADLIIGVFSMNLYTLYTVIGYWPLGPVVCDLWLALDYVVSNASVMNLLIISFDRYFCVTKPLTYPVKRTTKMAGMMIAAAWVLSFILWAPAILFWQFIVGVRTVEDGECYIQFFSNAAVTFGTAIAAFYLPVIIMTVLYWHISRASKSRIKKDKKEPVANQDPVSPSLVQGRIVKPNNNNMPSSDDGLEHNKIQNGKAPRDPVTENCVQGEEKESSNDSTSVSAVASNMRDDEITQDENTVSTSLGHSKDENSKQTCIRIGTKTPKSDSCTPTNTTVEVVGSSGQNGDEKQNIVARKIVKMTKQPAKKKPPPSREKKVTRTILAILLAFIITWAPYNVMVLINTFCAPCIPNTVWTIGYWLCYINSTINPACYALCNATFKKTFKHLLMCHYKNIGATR
Protocol: In a second functional assay, the functional potency of test compounds is determined by measuring the ability of the compounds to block oxotremorine-stimulated [^35S]GTPγS binding in CHO-K1 cells expressing the hM2 receptor.
At the time of use, frozen membranes were thawed and then diluted in assay buffer with a final target tissue concentration of 5-10 μg protein per well. The membranes were briefly homogenized using a Polytron PT-2100 tissue disrupter and then added to the assay plates.
The EC90 value (effective concentration for 90% maximal response) for stimulation of [^35S]GTPγS binding by the agonist oxotremorine was determined in each experiment.
To determine the ability of a test compound to inhibit oxotremorine-stimulated [^35S]GTPγS binding, the following was added to each well of 96 well plates: 25 μL of assay buffer with [^35S]GTPγS (0.4 nM), 25 μL of oxotremorine (EC90) and GDP (3 uM), 25 μL of diluted test compound and 25 μL CHO cell membranes expressing the hM2 receptor. […] Microscint-20 scintillation liquid (50 μL) was added to each well, and each plate was sealed and radioactivity counted on a Topcounter (PerkinElmer). Data were analyzed by nonlinear regression analysis with the GraphPad Prism Software package (GraphPad Software, Inc., San Diego, Calif.) using the non-linear regression, one-site competition equation. […]

| Compound | inhibition at 0.1 µM [1] [%] | Ki (hM2 receptor) [nM] |
| --- | --- | --- |
| O=C(Nc1ccccc1-c1ccccc1)OC1CCN(CCCCCCCCCNCCc2ccc(O)c3[nH]c(=O)sc23)CC1 [Example 1, Biphenyl-2-ylcarbamic Acid 1-{9-[2-(4-Hydroxy-2-oxo-2,3-dihydrobenzothiazol-7-yl)-ethylamino]nonyl}piperidin-4-yl Ester Bis(trifluoroacetate) Salt] | > 75 | < 10 |
| O=C(CCN1CCC(OC(=O)Nc2ccccc2-c2ccccc2)CC1)Nc1ccc(CNCCc2ccc(O)c3[nH]c(=O)sc23)cc1 [Example 2, Biphenyl-2-ylcarbamic Acid 1-[2-(4-{[2-(4-Hydroxy-2-oxo-2,3-dihydrobenzothiazol-7-yl)ethylamino]methyl}phenylcarbamoyl)ethyl]-piperidin-4-yl Ester Bis(trifluoroacetate) Salt] | > 30 |  |
